According to patent US9353082B2, “Pharmaceutical compounds” (BIAL—PORTELA & CA, S.A., priority 2008, dated 2016):

Experiments:
FAAH = target: T1, FAAH (Rattus norvegicus, UniProt P97612); test: In vitro FAAH activity in rat brain membranes, 3H-AEA substrate, % of control; format: biochemical, Wistar rats; settings: low value = strong inhibitor
T1 construct: Frozen brains (without cerebellum) from Wistar rats were used; from tissue; host or cells: Wistar rat brain (without cerebellum), washed membrane pellets
T1 sequence (P97612 1-579): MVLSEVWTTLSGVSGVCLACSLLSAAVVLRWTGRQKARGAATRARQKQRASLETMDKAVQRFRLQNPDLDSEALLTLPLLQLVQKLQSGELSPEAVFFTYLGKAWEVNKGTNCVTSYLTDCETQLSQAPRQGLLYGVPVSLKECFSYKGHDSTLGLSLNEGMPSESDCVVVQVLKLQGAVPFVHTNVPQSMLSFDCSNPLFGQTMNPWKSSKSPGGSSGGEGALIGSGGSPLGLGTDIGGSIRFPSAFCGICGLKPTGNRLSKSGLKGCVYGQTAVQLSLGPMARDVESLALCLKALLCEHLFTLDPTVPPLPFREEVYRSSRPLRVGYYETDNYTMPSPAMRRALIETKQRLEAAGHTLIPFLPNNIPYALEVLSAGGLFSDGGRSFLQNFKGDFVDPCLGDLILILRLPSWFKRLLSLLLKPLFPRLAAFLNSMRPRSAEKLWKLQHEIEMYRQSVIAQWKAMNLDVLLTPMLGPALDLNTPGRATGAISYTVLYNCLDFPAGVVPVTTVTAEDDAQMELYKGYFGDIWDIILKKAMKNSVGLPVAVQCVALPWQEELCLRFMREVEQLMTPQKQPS
Summary of the method: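 Wistar rat brain membranes (5 μg protein) preincubated 15 min at 37 °C with compound at 10 μM or 0.1 μM (0.1% DMSO), then 2 μM AEA including 3H-AEA with 0.1% BSA, Tris pH 7.6, 10 min. 3H-ethanolamine counted after charcoal stop; % of no-compound control after blank subtraction.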

carboxylesterase (CE) = test: Carboxylesterase (CE) activity in rat liver microsomes (LVms), p-nitrophenyl acetate; format: biochemical; settings: 10 uM compound, read 10 min after substrate, remaining CE activity
Protocol: (§1) FAAH inhibition was determined as described above. Inhibition of monoacylglycerol lipase (MAGL) and carboxylesterase (CE) was performed according to the protocols described below. The controls for both in vitro and in vivo were the reaction mix minus the test compounds. Therefore, a low value in Table 2 below for the test compounds indicates a strong inhibitor.
CE activity measurement is based on the formation of p-nitrophenol from p-nitrophenyl acetate. Briefly, in 96-well plates 8 μg/ml of rat or mouse liver microsomes (LVms) were incubated with 10 μM FAAH inhibitors for 15 min and then the substrate, p-nitrophenyl acetate, was added to a final concentration of 1 mM. The plate was read at 405 nm 10 min after substrate addition for the appearance of p-nitrophenol using a spectrophotometer. The carboxylesterase activity in microsome extracts without inhibitor added were set at 100% as control and the remaining CE activities after incubation with inhibitors were calculated relative to the control.

[1] = target: T2, monoacylglycerol lipase (MAGL) (Rattus norvegicus, UniProt Q8R431); test: MAGL activity in rat cerebella cytosol (CRBcyt), hydrolysis of [3H] 2-OG; format: biochemical, WISTAR rats; settings: 12.5 uM compound, remaining MAGL activity
T2 construct: cerebella cytosol (CRBcyt) fractions, previously obtained from adult WISTAR rats; from tissue; host or cells: adult Wistar rat cerebella, cytosol fraction
T2 sequence (Q8R431 1-303): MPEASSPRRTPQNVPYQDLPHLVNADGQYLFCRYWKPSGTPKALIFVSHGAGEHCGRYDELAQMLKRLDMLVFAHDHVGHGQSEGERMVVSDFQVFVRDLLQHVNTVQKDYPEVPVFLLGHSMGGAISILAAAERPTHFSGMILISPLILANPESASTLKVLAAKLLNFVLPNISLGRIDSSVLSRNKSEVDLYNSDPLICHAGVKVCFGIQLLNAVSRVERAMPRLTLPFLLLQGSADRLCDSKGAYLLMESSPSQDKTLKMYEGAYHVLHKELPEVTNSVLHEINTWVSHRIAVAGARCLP
Protocol: as §1
MAGL activity measurement was based on rate of hydrolysis of [^3H] 2-OG (glycerol labeled) as substrate. Briefly, cerebella cytosol (CRBcyt) fractions, previously obtained from adult WISTAR rats, were diluted to appropriate assay protein concentrations in Tris-HCl buffer (10 mM, pH 7.2) containing 1 mM EDTA, and were added to assay tubes containing test compound. Blanks contained assay buffer instead of cytosol samples were used as control. […] The final assay contained 0.125% w v^−1 fatty acid-free BSA. After the incubation phase, reactions were stopped by adding 400 μL chloroform:methanol (1/1 v v^−1), vortex mixing the tubes two times and placing them on ice. Phases were separated by centrifugation and 200 μL aliquots of the methanol/buffer phase were taken and tritium content assayed by liquid scintillation spectroscopy with quench correction.

FAAH 10 uM (FAAH; 10 uM compound, rat brain membranes, 100 = no measurable inhibition): 16 % of control
In Vitro FAAH activity, 10 uM (FAAH; 10 uM test compound): 16 % of control
CE Rat LVms 10 uM 10 min (carboxylesterase (CE)): 94.7 % of control
MAGL Rat CRBcyto 12.5 uM 8 min [1]: 87 % of control
Structure (SMILES): COc1cccc(-c2cn(C(=O)N3CCCc4ccccc43)cn2)c1 [Compound 39, (3,4-dihydroquinolin-1(2H)-yl)(4-(3-methoxyphenyl)-1H-imidazol-1-yl)methanone]
